Values of other authors as cited in patent US20040202693A1, “Pharmaceutical compositions releasing their active agents from a buccal or sublingual location to overcome an absorption window problem” (priority 2003, published 2004).
Read-outs that look alike come from different tables or passages of the source.

Assays:
[1] = oral administration in conventional dosage forms, upper portion of the gastrointestinal tract

C[C@H]1c2cccc(O)c2C(=O)C2=C(O)[C@]3(O)C(=O)C(C(N)=O)=C(O)[C@@H](N(C)C)[C@@H]3[C@@H](O)[C@@H]21 [Doxycycline]
absorption [1]: rapidly and almost completely absorbed

O=C(O[C@H]1C[C@H]2CC[C@@H](C1)[N+]21CCCC1)C(O)(c1ccccc1)c1ccccc1 [Trospium chloride]
bioavailability (after oral administration): approximately 10% | absorption (after rectal administration): almost no absorption at all | bioavailability (enteric-coated formulation): significant decrease of bioavailability
